Columns and labels:
[1] = test system: control sera (pooled serum of ten healthy LUMC hospital workers; commercial negative donor pooled serum from the Dutch bloodbank); type: binding, human; set-up: Binding of Control serum LUMC to linear peptides / Binding of Control serum Blood-bank to linear peptides / Binding of Control serum LUMC to looped peptides / Binding of Control Serum Blood-Bank to Looped peptides / Binding of Control serum LUMC to linear peptides of the protein M of SARS-CoV Urbani / Binding of Control serum Blood-bank to linear peptides of the protein M of SARS-CoV Urbani / Binding of Control serum LUMC to looped peptides of the protein M of SARS-CoV Urbani / Binding of Control Serum Blood-Bank to Looped peptides of the protein M of SARS-CoV Urbani: unit not given here
[2] = test system: antibodies in sera from SARS patients (sera 1a, 1b, 2, 6, 37, 62, London, SARS-yellow, SARS-green); type: binding, human; set-up: Binding of serum 6 to linear peptides of protein X1 of SARS-CoV Urbani / Binding of serum 37 to linear peptides of protein X1 of SARS-CoV Urbani / Binding of serum 6 to looped/cyclic peptide (PEPSCAN-ELISA) / Binding of serum 37 to looped/cyclic peptide (PEPSCAN-ELISA) / Binding of serum 37 to looped/cyclic peptides of protein X1 of SARS-CoV Urbani / Binding of serum 6 to linear peptides of protein X2 / Binding of serum 37 to linear peptides of protein X2 / Binding of serum 37 to looped/cyclic peptides of protein X2 of SARS-CoV Urbani / Binding of serum 6 to linear peptides of protein M of SARS-CoV Urbani / Binding of serum 37 to linear peptides of protein M of SARS-CoV Urbani / Binding of serum 6 to looped/cyclic peptides of protein M of SARS-CoV Urbani / Binding of serum 37 to looped/cyclic peptides of protein M of SARS-CoV Urbani / Binding of serum 6 to linear peptides of protein X3 of SARS-CoV Urbani / Binding of serum 37 to linear peptides of protein X3 of SARS-CoV Urbani / Binding of serum 37 to looped/cyclic peptides of protein X3 of SARS-CoV Urbani / Binding of serum 6 to linear peptides of protein X4 of SARS-CoV Urbani / Binding of serum 37 to linear peptides of protein X4 of SARS-CoV Urbani / Binding of serum 37 to looped/cyclic peptides of protein X4 of SARS-CoV Urbani / Binding of serum 6 to linear peptides of protein X5 of SARS-CoV Urbani / Binding of serum 37 to linear peptides of protein X5 of SARS-CoV Urbani / Binding of serum 37 to looped/cyclic peptides of protein X5 of SARS-CoV Urbani / Binding of serum 6 to linear peptides of protein N of SARS-CoV Urbani / Binding of serum 37 to linear peptides of protein N of SARS-CoV Urbani / Binding of serum 6 to linear peptide (PEPSCAN-ELISA) / Binding of serum 1a to looped/cyclic peptides of protein N of SARS-CoV Urbani / Binding of serum 1b to looped/cyclic peptides of protein N of SARS-CoV Urbani / Binding of serum 2 to looped/cyclic peptides of protein N of SARS-CoV Urbani / Binding of serum 6 to looped/cyclic peptides of protein N of SARS-CoV Urbani / Binding of serum 37 to looped/cyclic peptides of protein N of SARS-CoV Urbani / Binding of serum 62 to looped/cyclic peptides of protein N of SARS-CoV Urbani / Binding of serum London to looped/cyclic peptides of protein N of SARS-CoV Urbani / Binding of serum SARS-green to looped/cyclic peptides of protein N of SARS-CoV Urbani: unit not given here
[3] = test system: rabbit serum obtained by immunizing a rabbit with the SARS-CoV strain Frankfurt 1; type: binding; set-up: Binding of a rabbit serum to linear peptides / Binding of a rabbit serum to looped peptides / Rabbit serum linear peptides / Rabbit serum looped peptides / Binding of a rabbit serum to linear peptides of protein N of SARS-CoV Urbani (Rabbit serum linear peptides) / Binding of a rabbit serum to looped/cyclic peptides of protein N of SARS-CoV Urbani (Rabbit serum looped peptides): unit not given here

AAFRDVLVVLNKRTN
Binding of Control Serum Blood-Bank to Looped peptides [1]: 0.7 | Binding of Control serum Blood-bank to linear peptides [1]: 0.6 | Binding of Control serum LUMC to linear peptides [1]: 0.8 | Binding of Control serum LUMC to looped peptides [1]: 0.4 | Binding of serum 1a to linear peptides of protein X5 of SARS-CoV Urbani [2]: 0.6 | Binding of serum 1a to looped/cyclic peptides of protein X5 of SARS-CoV Urbani [2]: 0.6 | Binding of serum 1b to linear peptides of protein X5 of SARS-CoV Urbani [2]: 0.6 | Binding of serum 1b to looped/cyclic peptides of protein X5 of SARS-CoV Urbani [2]: 0.4 | Binding of serum 2 to linear peptides of protein X5 of SARS-CoV Urbani [2]: 0.6 | Binding of serum 2 to looped/cyclic peptides of protein X5 of SARS-CoV Urbani [2]: 0.6 | Binding of serum 6 to linear peptides of protein X5 of SARS-CoV Urbani [2]: 0.8 | Binding of serum 6 to looped/cyclic peptides of protein X5 of SARS-CoV Urbani [2]: 0.8 | Binding of serum 37 to linear peptides of protein X5 of SARS-CoV Urbani [2]: 0.5 | Binding of serum 37 to looped/cyclic peptides of protein X5 of SARS-CoV Urbani [2]: 0.6 | Binding of serum 62 to linear peptides of protein X5 of SARS-CoV Urbani [2]: 0.4 | Binding of serum 62 to looped/cyclic peptides of protein X5 of SARS-CoV Urbani [2]: 0.5 | Binding of serum London to linear peptides of protein X5 of SARS-CoV Urbani [2]: 0.6 | Binding of serum London to looped/cyclic peptides of protein X5 of SARS-CoV Urbani [2]: 1.0 | Binding of serum SARS-green to linear peptides of protein X5 of SARS-CoV Urbani [2]: 0.1 | Binding of serum SARS-green to looped/cyclic peptides of protein X5 of SARS-CoV Urbani [2]: 0.4 | Binding of serum SARS-yellow to linear peptides of protein X5 of SARS-CoV Urbani [2]: 0.8 | Binding of serum SARS-yellow to looped/cyclic peptides of protein X5 of SARS-CoV Urbani [2]: 0.3 | Rabbit serum linear peptides [3]: 0.5 | Rabbit serum looped peptides [3]: 0.6

AAGMEAQFLYLYALI
Binding of Control Serum Blood-Bank to Looped peptides [1]: 0.5 | Binding of Control serum Blood-bank to linear peptides [1]: 0.5 | Binding of Control serum LUMC to linear peptides [1]: 0.9 | Binding of Control serum LUMC to looped peptides [1]: 0.7 | Binding of serum 1a to linear peptides of protein X1 of SARS-CoV Urbani [2]: 0.7 | Binding of serum 1a to looped/cyclic peptide (PEPSCAN-ELISA) [2]: 0.6 | Binding of serum 1b to linear peptides of protein X1 of SARS-CoV Urbani [2]: 0.6 | Binding of serum 1b to looped/cyclic peptide (PEPSCAN-ELISA) [2]: 0.4 | Binding of serum 2 to linear peptides of protein X1 of SARS-CoV Urbani [2]: 0.6 | Binding of serum 2 to looped/cyclic peptide (PEPSCAN-ELISA) [2]: 0.5 | Binding of serum 6 to linear peptides of protein X1 of SARS-CoV Urbani [2]: 0.5 | Binding of serum 6 to looped/cyclic peptide (PEPSCAN-ELISA) [2]: 0.3 | Binding of serum 37 to linear peptides of protein X1 of SARS-CoV Urbani [2]: 0.5 | Binding of serum 37 to looped/cyclic peptide (PEPSCAN-ELISA) [2]: 0.6 | Binding of serum 62 to linear peptides of protein X1 of SARS-CoV Urbani [2]: 0.5 | Binding of serum 62 to looped/cyclic peptide (PEPSCAN-ELISA) [2]: 0.6 | Binding of serum London to linear peptides of protein X1 of SARS-CoV Urbani [2]: 0.2 | Binding of serum London to looped/cyclic peptide (PEPSCAN-ELISA) [2]: 0.2 | Binding of serum SARS-green to linear peptides of protein X1 of SARS-CoV Urbani [2]: 0.2 | Binding of serum SARS-green to looped/cyclic peptide (PEPSCAN-ELISA) [2]: 0.3 | Binding of serum SARS-yellow to linear peptides of protein X1 of SARS-CoV Urbani [2]: 0.3 | Binding of serum SARS-yellow to looped/cyclic peptide (PEPSCAN-ELISA) [2]: 0.4 | Binding of a rabbit serum to linear peptides [3]: 0.1 | Binding of a rabbit serum to looped peptides [3]: 0.6

ACIVGLMWLSYFVAS
Binding of Control Serum Blood-Bank to Looped peptides of the protein M of SARS-CoV Urbani [1]: 0.6 | Binding of Control serum Blood-bank to linear peptides of the protein M of SARS-CoV Urbani [1]: 0.6 | Binding of Control serum LUMC to linear peptides of the protein M of SARS-CoV Urbani [1]: 0.3 | Binding of Control serum LUMC to looped peptides of the protein M of SARS-CoV Urbani [1]: 0.5 | Binding of serum 1a to linear peptides of protein M of SARS-CoV Urbani [2]: 0.7 | Binding of serum 1a to looped/cyclic peptides of protein M of SARS-CoV Urbani [2]: 0.6 | Binding of serum 1b to linear peptides of protein M of SARS-CoV Urbani [2]: 0.5 | Binding of serum 1b to looped/cyclic peptides of protein M of SARS-CoV Urbani [2]: 0.3 | Binding of serum 2 to linear peptides of protein M of SARS-CoV Urbani [2]: 0.5 | Binding of serum 2 to looped/cyclic peptides of protein M of SARS-CoV Urbani [2]: 0.5 | Binding of serum 6 to linear peptides of protein M of SARS-CoV Urbani [2]: 0.4 | Binding of serum 6 to looped/cyclic peptides of protein M of SARS-CoV Urbani [2]: 0.6 | Binding of serum 37 to linear peptides of protein M of SARS-CoV Urbani [2]: 0.6 | Binding of serum 37 to looped/cyclic peptides of protein M of SARS-CoV Urbani [2]: 0.5 | Binding of serum 62 to linear peptides of protein M of SARS-CoV Urbani [2]: 0.7 | Binding of serum 62 to looped/cyclic peptides of protein M of SARS-CoV Urbani [2]: 0.4 | Binding of serum London to linear peptides of protein M of SARS-CoV Urbani [2]: 0.3 | Binding of serum London to looped/cyclic peptides of protein M of SARS-CoV Urbani [2]: 0.2 | Binding of serum SARS-green to linear peptides of protein M of SARS-CoV Urbani [2]: 0.2 | Binding of serum SARS-green to looped/cyclic peptides of protein M of SARS-CoV Urbani [2]: 0.2 | Binding of serum SARS-yellow to linear peptides of protein M of SARS-CoV Urbani [2]: 0.1 | Binding of serum SARS-yellow to looped/cyclic peptides of protein M of SARS-CoV Urbani [2]: 0.4 | Rabbit serum linear peptides [3]: 0.3 | Rabbit serum looped peptides [3]: 0.8

ACRIIMRCWLCWKCK
Binding of Control Serum Blood-Bank to Looped peptides [1]: 0.1 | Binding of Control serum Blood-bank to linear peptides [1]: 1.0 | Binding of Control serum LUMC to linear peptides [1]: 0.8 | Binding of Control serum LUMC to looped peptides [1]: 0.3 | Recognition of the peptide by sera of SARS-CoV infected individuals, and form (linear, looped/cyclic) in which it is recognized [2]: recognized in linear form | Recognition of the peptide by the rabbit serum [3]: recognized

ADGTRHTYQLRARSV
Binding of Control Serum Blood-Bank to Looped peptides [1]: 0.6 | Binding of Control serum Blood-bank to linear peptides [1]: 0.6 | Binding of Control serum LUMC to linear peptides [1]: 0.6 | Binding of Control serum LUMC to looped peptides [1]: 0.6 | Binding of serum 1a to linear peptides of protein X4 of SARS-CoV Urbani [2]: 0.7 | Binding of serum 1a to looped/cyclic peptides of protein X4 of SARS-CoV Urbani [2]: 0.7 | Binding of serum 1b to linear peptides of protein X4 of SARS-CoV Urbani [2]: 0.6 | Binding of serum 1b to looped/cyclic peptides of protein X4 of SARS-CoV Urbani [2]: 0.4 | Binding of serum 2 to linear peptides of protein X4 of SARS-CoV Urbani [2]: 0.6 | Binding of serum 2 to looped/cyclic peptides of protein X4 of SARS-CoV Urbani [2]: 0.6 | Binding of serum 6 to linear peptides of protein X4 of SARS-CoV Urbani [2]: 0.5 | Binding of serum 6 to looped/cyclic peptides of protein X4 of SARS-CoV Urbani [2]: 0.7 | Binding of serum 37 to linear peptides of protein X4 of SARS-CoV Urbani [2]: 0.7 | Binding of serum 37 to looped/cyclic peptides of protein X4 of SARS-CoV Urbani [2]: 0.7 | Binding of serum 62 to linear peptides of protein X4 of SARS-CoV Urbani [2]: 0.7 | Binding of serum 62 to looped/cyclic peptides of protein X4 of SARS-CoV Urbani [2]: 0.6 | Binding of serum London to linear peptides of protein X4 of SARS-CoV Urbani [2]: 0.7 | Binding of serum London to looped/cyclic peptides of protein X4 of SARS-CoV Urbani [2]: 0.3 | Binding of serum SARS-green to linear peptides of protein X4 of SARS-CoV Urbani [2]: 0.6 | Binding of serum SARS-green to looped/cyclic peptides of protein X4 of SARS-CoV Urbani [2]: 0.5 | Binding of serum SARS-yellow to linear peptides of protein X4 of SARS-CoV Urbani [2]: 0.7 | Binding of serum SARS-yellow to looped/cyclic peptides of protein X4 of SARS-CoV Urbani [2]: 0.6 | Recognition of the peptide by the rabbit serum [3]: recognized

— patent publication US20070128217A1 (priority 2003, published 2007)
